Common to all, as to format: cell-based, human
For assay [1], the system named is NKCC1. The assay can be described thus: NKCC1 protein expression in HT-29 cells, Western blot. An excerpt:
Cell culture and buffers. […] Arch Oral Biol 52: 411-416, 2007). These include, for example, studies of COMM domain-containing protein 1, which is involved in NKCC1 ubiquitination and transcriptional regulation of epithelial Na^+ channels (ENaC) located in the apical membrane of polarized epithelial cells, in particular, cells in the colon, kidney, and lung, by ALD (Cohen, et al., Induced differentiation in HT29, a human colon adenocarcinoma cell line. J Cell Sci 112: […], 1999, Epple, et al., Early aldosterone effect in distal colon by transcriptional regulation of ENaC subunits. Am J Physiol Gastrointest Liver Physiol 278: G718-G724, 2000, Smith, et al., COMMD1 interacts with the COOH terminus of NKCC1 in Calu-3 airway epithelial cells to modulate NKCC1 ubiquitination. Am J Physiol Cell Physiol 305: C133-C146, 2013). HT-29 cells were grown in DMEM media (Invitrogen, Carlsbad Calif.) with 10% FBS and antibiotics. Cells were grown in a humidified 95%/5% CO2 incubator at 37° C. Experiments were performed at 70-80% confluence.
(§1) Western blot. Cell lysates were prepared in RIPA buffer (Pierce 89901; Thermo Scientific, Waltham, Mass.) with protease inhibitor cocktail (78430; Thermo Scientific). Cell samples were homogenized in buffer, followed by centrifugation at 2,000 rpm for 10 min at 4° C. Supernatants were subjected to Western blot analysis by loading 200 μg of protein per lane, after the protein concentrations were determined by Bradford protein assay. Proteins were fractionated by SDS-PAGE gel electrophoresis and transferred to a PVDF blotting membrane (Whatman, Piscataway, N.J.). The blot was incubated with primary antibodies against β-actin and Na—K-2C1 cotransport protein (Cell Signaling, Danvers Mass.); primary antibodies for p-SGK1, SGK1, pNedd4-2, and Nedd4-2 were utilized (concentration 1:1,000). The secondary antibody was horseradish peroxidaseconjugated goat anti-rabbit IgG (1:2,000; Cell Signaling).
Statistical analysis. Images from films were imported into Adobe Photoshop (v 5.0), and further processed using Adobe Photoshop CS and ImageJ (National Institutes of Health) for the densitometry analysis. Data are reported as means±SD. Statistical analyses were performed with PRISM 4.0 (GraphPad Software, San Diego Calif.). Differences were analyzed with a one- or a two-way repeated measures ANOVA as appropriate or a two-way ANOVA followed by Bonferroni post hoc analyses that were corrected for multiple comparisons. Values of P <0.05 were considered significant.
(In general: In western blotting, separated proteins are transferred to a membrane and probed.)

A further assay deals with LC3-I, -II, and LAMP-2. The assay can be described thus: Lysosome pathway markers in HT-29 cells, Western blot. The settings on record: ALD 1 μM, MG-132 20 μM, CQ 50 μM, 9 h. As for the experimental part:
FIG. 23(A) is a blot and showing ubiquitination, but not the lysosome pathway, is involved in the regulation of NKCC1 by ALD. To exclude the possibility that depletion of free ubiquitin by the prolonged MG-132 treatment triggered nonspecific inhibition of lysosome degradation of NKCC1 and investigate whether ALD is involved in a lysosome pathway, a parallel experiment with chloroquine (CQ) was performed. Here, the positive marks (+) indicate application of ALD (1 μM), MG132 (20 μM), CQ (50 μM), ALD+CQ, and MG132+CQ for 9 h. An autophagosome marker, autophagy-related gene 8 named as light chain 3 (LC3), and the lysosome-associated membrane protein 2 (LAMP-2) were used was indicators of lysosome pathway activation (phagocytic activity) under treatment with CQ.
as §1
Ubiquitination, but not the lysosome pathway, is involved in NKCC1 induction by ALD. A parallel experiment was performed with chloroquine (CQ), a lysosome inhibitor, to exclude the possibility that prolonged MG-132 treatment depleted free ubiquitin by nonspecific inhibition of lysosome degradation of NKCC1 and to confirm whether or not ALD is involved in a lysosome pathway. […]

The subject of assay [2] is NKCC1. The assay can be described thus: Tl-uptake in single HT-29 cells (FluxOR) for NKCC1 activity. The settings on record: 24 single HT-29 cells per condition. An excerpt: Tl-uptake in single cells for the detection of NKCC1 activity. To measure NKCC1 activity, we used a fluorescence assay to assess cotransporter activity in single isolated HT-29 cells (Delpire & Austin, Kinase regulation of Na^+—K^+-2Cl^− cotransport in primary afferent neurons. J Physiol 588: 3365-3373, 2010, Geng, et al., The Ste20 kinases SPAK and OSR1 regulate NKCC1 function in sensory neurons. J Biol Chem 284: 14020-14028, 2009, Weaver, et al., A thallium-sensitive, fluorescence-based assay for detecting and characterizing potassium channel modulators in mammalian cells. J Biomol Screen 9: 671-677, 2004). HT-29 cells were incubated at 37° C./5% CO2 for 24 h before use. […] For the detection of fluorescence, the preincubation solution was removed, and the cells were treated with a 340.5 mosM hypertonic stimulus solution containing the following (in mM): (2.8 TISO4, 140 NaCl, 2 KCl, 2 CaCl2, 0.8 MgSO4, 5 glucose, 20 HEPES, 27 sucrose, 1 ouabain, and 2.7 probenecid) in the presence or absence of 20 μM bumetanide. […] FluxOR fluorescence (excitation/emission: 488/525 nm) was recorded after 90 s upon addition of 2.8 mM […] to the external medium. […]
Influence of ALD on NKCC1 transporter activity. […] To test this hypothesis, a more efficient and sensitive method, fluorescence Ion flux assays was adopted to measure NKCC1 transporter activity. […]

The next assay concerns NKCC1 ubiquitination. Put plainly: Immunoprecipitation (autoubiquitination assay) of NKCC1 in HT-29 cells. The settings on record: MG132 20 μM 2 h, then ALD 1 μM and/or GSK 650394 50 μM for 24 h. On the procedure: Immunoprecipitation (autoubiquitination assay) and western blot analysis. An autoubiquitination assay was followed (Garg, et al., Effect of the Na—K-2Cl cotransporter NKCC1 on systemic blood pressure and smooth muscle tone. Am J Physiol Heart Circ Physiol 292: H2100-H2105, 2007). Cell extracts were prepared in a modified radioimmunoprecipitation assay 1 (RIPA) buffer, containing the following (in mM): 50 Tris·HCl at pH 7.4, 150 NaCl, 1 EDTA, and 1 dithiothreitol with 1% Nonidet P-40, 0.1% SDS; in a 1:200-diluted protease inhibitor cocktail (Sigma), containing the following (in mM): 1 PMSF, 10 NEM, and 0.1 iodoacetamide Immunoprecipitations were accomplished using a rabbit polyclonal anti-NKCC1 antibody (Cell Signaling). Antibody was bound to lysate with endogenous NKCC1, and then beads were added. Bound proteins were eluted in 1× SDS sample buffer, fractionated on an SDS-polyacrylamide gel, transferred onto a […] membrane (GE Healthcare, Piscataway, N.J.), and immunoblotted with anti-ubiquitin antibody visualized using enhanced chemiluminescence detection reagents (Pears, Shelton Conn.) according to the manufacturer's instructions.
Immunoblotting with anti-ubiquitin antibody was performed as described above.
ALD decreases the endogenous ubiquitination of NKCC1 and inhibition of SGK1 activation blocks this downregulation. […]

The subject of a further assay is SGK1 and Nedd4-2. The assay can be described thus: SGK1 and Nedd4-2 phosphorylation in HT-29 cells, Western blot. The settings on record: 9 h. On the procedure: FIG. 25 is a blot showing ALD modulation of NKCC1 via the ALD-SGK1-Nedd4-2 pathway. HT-29 cells were treated with ALD (1 μM) or ALD (1 μM)+GSK650394 (50 μM) for 9 h. Cell lysates were analyzed by Western blot as indicated. Blots are representative of 3 independent experiments. Left: controls. Middle: ALD increases the phosphorylations of SGK1 and Nedd4-2, concomitantly there is an increased induction of NKCC1 protein expression (1st row).
as §1

The subject of the next assay is Na,K-ATPase. Put plainly: Na,K-ATPase mRNA expression in HT-29 cells. The settings on record: 5 mM, 24 hr, HT-29, compared to vehicle treatment; preliminary data. On the procedure: FIG. 37 is a blot showing the up-regulation of Na, K-ATPase with NH4Cl. L is the DNA ladder, C is the control (vehicle treatment), NH4CL is treatment with 5 mM NH4Cl for 24 hours.
Ammonium chloride (NH4Cl) as part of a proposed treatment of presbycusis is based on the fact that NH4Cl has been used with FDA approval as a diuretic; NH4Cl increases NKCC1 protein expression and activity in several studies in other physiological systems (Jayakumar et al. 2008; Ikebe et al. 2001); c) NH4Cl can also increase Na, K-ATPase activity (Masui et al. 2002; Garcon et al. 2007). For large doses, NH4Cl can induce metabolic acidosis, but in lower doses taken orally, there are no significant side effects in the short term.

Peptide text beside a SMILES is read from it. * marks the point of attachment. Cbz = O=C(OCc1ccccc1)*

On to `CC(C)C[C@@H](C=O)NC(=O)[C@H](CC(C)C)NC(=O)[C@H](CC(C)C)NC(=O)OCc1ccccc1` [MG132] (Cbz-Leu-Leu-Leu-aldehyde), for which the “induction of NKCC1 protein expression” value with NKCC1 [1] (ALD 1 μM, MG-132 20 μM, CQ 50 μM, 9 h) is listed as “induce NKCC1 protein expression similarly”. In addition, in the assay on NKCC1 [1] (MG132, ALD 1 μM, 3, 6, or 9 h), the NKCC1 protein expression entry is “effect of ALD on NKCC1 expression was mimicked by MG132”. The “lysosome pathway markers LC3II and LAMP-2 expression levels” value with LC3-I, -II, and LAMP-2 is “without increasing lysosome pathway markers”. In addition, the “bumetanide-sensitive Tl+ uptake fluorescence” value in the assay on NKCC1 [2] is given as “identical enhancements similar to the ALD treatment alone”.

Regarding `O=C(O)c1ccc(-c2c[nH]c3ncc(-c4ccccc4)cc23)cc1C1CCCC1` [GSK 650394], the “NKCC1 protein expression with ALD in the presence of SGK1 inhibitor” value with NKCC1 [1] (ALD 1 μM + GSK 650394 50 μM, 9 h) is reported as “did not increase protein expression of NKCC1”. Moreover, the “endogenous ubiquitinated NKCC1” value with NKCC1 ubiquitination is “reduces the ability of ALD to suppress NKCC1 ubiquitination”. In the assay on SGK1 and Nedd4-2 (ALD 1 μM + GSK 650394 50 μM), the “total protein expressions of SGK1 and Nedd4-2” value is on record as “showed no differences”. Further, in the assay with SGK1 and Nedd4-2 (ALD 1 μM, GSK 650394 50 μM), the “phosphorylation of SGK1 and Nedd4-2” value was “blocked phosphorylation of SGK1 and Nedd4-2”.

In the case of `COC(=O)[C@@H]1CC2=CC(=O)CC[C@]2(C)[C@@]23O[C@@H]2C[C@@]2(C)[C@@H](CC[C@@]24CCC(=O)O4)[C@H]13` [eplerenone], the “effect on ALD upregulation of NKCC1 protein expression” value in the assay with NKCC1 [1] (simultaneous ALD (1 μM) and eplerenone (20 μM)) is given as “prevented the ALD upregulation of NKCC1 protein expression”.

With `CCN(CC)CCCC(C)Nc1ccnc2cc(Cl)ccc12` (centres unmarked) [CQ, chloroquine], in the assay on LC3-I, -II, and LAMP-2, the “lysosome pathway markers LC3II and LAMP-2 expression levels” value was “significant upregulation of LC3II and LAMP-2 expression levels”.

As for `Cl.N` [NH4Cl, Ammonium chloride], in the assay on Na,K-ATPase, the “mRNA expression of Na,K-ATPase” value is recorded as “enhances the mRNA expression of Na,K-ATPase”.

Source of the values: patent publication US10342806B2, “Hormone treatment for age-related hearing loss-presbycusis” (priority 2014, dated 2019).
